Measurements as given in PubChem BioAssay (NCI).
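Five compound concentrations were applied to cells in 96-well plates for 48 hours; endpoints were derived by simple linear interpolation of the resulting dose-response curve. The concentration for 50% growth inhibition is given as GI50. The concentration for full growth arrest is given as TGI.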

Assays:
Test in all cases: NCI anticancer screen, dose series, 48 h
ACHN renal = system: ACHN renal
SNB-75 CNS = system: SNB-75 CNS
HCT-116 colon = system: HCT-116 colon
MDA-MB-231 breast = system: MDA-MB-231 breast
SK-MEL-28 melanoma = system: SK-MEL-28 melanoma
NCI-H226 lung = system: NCI-H226 lung
UACC-257 melanoma = system: UACC-257 melanoma
PC-3 prostate = system: PC-3 prostate
HCC-2998 colon = system: HCC-2998 colon
IGROV1 ovarian = system: IGROV1 ovarian
A498 renal = system: A498 renal
RPMI-8226 leukemia = system: RPMI-8226 leukemia
OVCAR-8 ovarian = system: OVCAR-8 ovarian
EKVX NSCLC = system: EKVX NSCLC
HL-60(TB) leukemia = system: HL-60(TB) leukemia
SN12C renal = system: SN12C renal
SF-268 CNS = system: SF-268 CNS
TK-10 renal = system: TK-10 renal
MCF7 breast = system: MCF7 breast
SNB-19 CNS = system: SNB-19 CNS
HOP-92 NSCLC = system: HOP-92 NSCLC
OVCAR-5 ovarian = system: OVCAR-5 ovarian
SR leukemia = system: SR leukemia
LOX IMVI melanoma = system: LOX IMVI melanoma
KM12 colon = system: KM12 colon
UACC-62 melanoma = system: UACC-62 melanoma
NCI-H522 lung = system: NCI-H522 lung
OVCAR-4 ovarian = system: OVCAR-4 ovarian
U251 CNS = system: U251 CNS
OVCAR-3 ovarian = system: OVCAR-3 ovarian
T-47D breast = system: T-47D breast
SF-539 CNS = system: SF-539 CNS
786-0 renal = system: 786-0 renal
COLO 205 colon = system: COLO 205 colon
UO-31 renal = system: UO-31 renal
NCI/ADR-RES ovarian = system: NCI/ADR-RES ovarian
MOLT-4 leukemia = system: MOLT-4 leukemia
K-562 leukemia = system: K-562 leukemia
HS 578T breast = system: HS 578T breast
A549 NSCLC = system: A549 NSCLC
CAKI-1 renal = system: CAKI-1 renal
M14 melanoma = system: M14 melanoma
MDA-MB-468 breast = system: MDA-MB-468 breast
CCRF-CEM leukemia = system: CCRF-CEM leukemia
SF-295 CNS = system: SF-295 CNS
HT29 colon = system: HT29 colon
NCI-H23 lung = system: NCI-H23 lung
BT-549 breast = system: BT-549 breast
SW-620 colon = system: SW-620 colon
MDA-MB-435 = system: MDA-MB-435
MALME-3M melanoma = system: MALME-3M melanoma
HCT-15 colon = system: HCT-15 colon
SK-OV-3 ovarian = system: SK-OV-3 ovarian
NCI-H460 lung = system: NCI-H460 lung
DU-145 prostate = system: DU-145 prostate
RXF 393 renal = system: RXF 393 renal
SK-MEL-2 melanoma = system: SK-MEL-2 melanoma
HOP-62 NSCLC = system: HOP-62 NSCLC
SK-MEL-5 melanoma = system: SK-MEL-5 melanoma

Structure (SMILES): Cc1ccc(O)cc1Nc1nc(SCCN2CCOCC2)nc2c1cnn2CC(Cl)c1ccc(Br)cc1 (stereo not drawn)
- GI50 (ACHN renal): 2210 nM
- TGI (ACHN renal): 15.4 µM
- GI50 (SNB-75 CNS): 1240 nM
- TGI (SNB-75 CNS): 5.11 µM
- GI50 (HCT-116 colon): 3.46 µM
- TGI (HCT-116 colon): 13.3 µM
- GI50 (MDA-MB-231 breast): 2500 nM
- TGI (MDA-MB-231 breast): 14.3 µM
- GI50 (SK-MEL-28 melanoma): 4.21 µM
- TGI (SK-MEL-28 melanoma): 17.4 µM
- GI50 (NCI-H226 lung): 3.39 µM
- TGI (NCI-H226 lung): 20.4 µM
- GI50 (UACC-257 melanoma): 9.87 µM
- TGI (UACC-257 melanoma): 24.7 µM
- GI50 (PC-3 prostate): 4.98 µM
- TGI (PC-3 prostate): 46.1 µM
- GI50 (HCC-2998 colon): 3.93 µM
- TGI (HCC-2998 colon): 15.2 µM
- GI50 (IGROV1 ovarian): 2060 nM
- TGI (IGROV1 ovarian): 6.08 µM
- GI50 (A498 renal): 6.88 µM
- TGI (A498 renal): 21.7 µM
- GI50 (RPMI-8226 leukemia): 4.37 µM
- TGI (RPMI-8226 leukemia): 28.4 µM
- GI50 (OVCAR-8 ovarian): 4.45 µM
- TGI (OVCAR-8 ovarian): 21.2 µM
- GI50 (EKVX NSCLC): 3.93 µM
- TGI (EKVX NSCLC): 60.4 µM
- GI50 (HL-60(TB) leukemia): 5.18 µM
- TGI (HL-60(TB) leukemia): 28.4 µM
- GI50 (SN12C renal): 2120 nM
- TGI (SN12C renal): 13.3 µM
- GI50 (SF-268 CNS): 7.04 µM
- TGI (SF-268 CNS): > 100 µM
- GI50 (TK-10 renal): 15.8 µM
- TGI (TK-10 renal): 32.3 µM
- GI50 (MCF7 breast): 3.4 µM
- TGI (MCF7 breast): 17.3 µM
- GI50 (SNB-19 CNS): 5.93 µM
- TGI (SNB-19 CNS): 43.4 µM
- GI50 (HOP-92 NSCLC): 2060 nM
- TGI (HOP-92 NSCLC): 8.12 µM
- GI50 (OVCAR-5 ovarian): 3.96 µM
- TGI (OVCAR-5 ovarian): 18.9 µM
- GI50 (SR leukemia): 2340 nM
- TGI (SR leukemia): 17.5 µM
- GI50 (LOX IMVI melanoma): 1520 nM
- TGI (LOX IMVI melanoma): 3.49 µM
- GI50 (KM12 colon): 7.55 µM
- TGI (KM12 colon): 29.8 µM
- GI50 (UACC-62 melanoma): 3.05 µM
- TGI (UACC-62 melanoma): 15.5 µM
- GI50 (NCI-H522 lung): 2870 nM
- TGI (NCI-H522 lung): 16.5 µM
- GI50 (OVCAR-4 ovarian): 6.84 µM
- TGI (OVCAR-4 ovarian): > 100 µM
- GI50 (U251 CNS): 4.85 µM
- TGI (U251 CNS): 17.9 µM
- GI50 (OVCAR-3 ovarian): 11 µM
- TGI (OVCAR-3 ovarian): 64.9 µM
- GI50 (T-47D breast): 2140 nM
- TGI (T-47D breast): > 100 µM
- GI50 (SF-539 CNS): 3.05 µM
- TGI (SF-539 CNS): 13.9 µM
- GI50 (786-0 renal): 6.22 µM
- TGI (786-0 renal): 25.4 µM
- GI50 (COLO 205 colon): 17.6 µM
- TGI (COLO 205 colon): 42.2 µM
- GI50 (UO-31 renal): 2250 nM
- TGI (UO-31 renal): 31.5 µM
- GI50 (NCI/ADR-RES ovarian): 3.13 µM
- TGI (NCI/ADR-RES ovarian): 17.3 µM
- GI50 (MOLT-4 leukemia): 2650 nM
- TGI (MOLT-4 leukemia): 14.5 µM
- GI50 (K-562 leukemia): 57.5 nM
- TGI (K-562 leukemia): 2730 nM
- GI50 (HS 578T breast): 832 nM
- TGI (HS 578T breast): 5.67 µM
- GI50 (A549 NSCLC): 3.18 µM
- TGI (A549 NSCLC): 18.5 µM
- GI50 (CAKI-1 renal): 3.53 µM
- TGI (CAKI-1 renal): 33.1 µM
- GI50 (M14 melanoma): 2850 nM
- TGI (M14 melanoma): 15.2 µM
- GI50 (MDA-MB-468 breast): 1840 nM
- TGI (MDA-MB-468 breast): 4.69 µM
- GI50 (CCRF-CEM leukemia): 4.03 µM
- TGI (CCRF-CEM leukemia): 39.1 µM
- GI50 (SF-295 CNS): 2360 nM
- TGI (SF-295 CNS): 12 µM
- GI50 (HT29 colon): 3.36 µM
- TGI (HT29 colon): 13.6 µM
- GI50 (NCI-H23 lung): 6.21 µM
- TGI (NCI-H23 lung): 19.5 µM
- GI50 (BT-549 breast): 10.1 µM
- TGI (BT-549 breast): 23.2 µM
- GI50 (SW-620 colon): 14.6 µM
- TGI (SW-620 colon): 78.1 µM
- GI50 (MDA-MB-435): 4.72 µM
- TGI (MDA-MB-435): 21.5 µM
- GI50 (MALME-3M melanoma): 3.71 µM
- TGI (MALME-3M melanoma): 16.6 µM
- GI50 (HCT-15 colon): 2820 nM
- TGI (HCT-15 colon): 15.8 µM
- GI50 (SK-OV-3 ovarian): 13.6 µM
- TGI (SK-OV-3 ovarian): 73.4 µM
- GI50 (NCI-H460 lung): 4.26 µM
- TGI (NCI-H460 lung): 21.8 µM
- GI50 (DU-145 prostate): 8.92 µM
- TGI (DU-145 prostate): > 100 µM
- GI50 (RXF 393 renal): 282 nM
- TGI (RXF 393 renal): 3.71 µM
- GI50 (SK-MEL-2 melanoma): 11.2 µM
- TGI (SK-MEL-2 melanoma): 24.5 µM
- GI50 (HOP-62 NSCLC): 4.41 µM
- TGI (HOP-62 NSCLC): 30.2 µM
- GI50 (SK-MEL-5 melanoma): 4.17 µM
- TGI (SK-MEL-5 melanoma): 15.9 µM
